Where a name gives a salt, the structure may show the parent alone.
How the values were obtained:
[1] = test system: collagenase; conditions: literature or U.S. Pat. No. 4,297,372; cited from earlier work
[2] = target: T1, human skin fibroblast collagenase (Homo sapiens, UniProt P03956); assay: Collagenase Assay, Test Code 006 (degradation of radiolabeled native collagen fibrils); assay type: biochemical; conditions: test conc.: 30 μg/ml; ratio of weight (μg) for 50% inhibition vs reference 6,6'-[ureylenebis(m-phenylenecarbonylimino)] analog; >1 = less active
T1 construct: endogenous in cells; host or cells: human skin fibroblasts
T1 sequence (P03956 100-469): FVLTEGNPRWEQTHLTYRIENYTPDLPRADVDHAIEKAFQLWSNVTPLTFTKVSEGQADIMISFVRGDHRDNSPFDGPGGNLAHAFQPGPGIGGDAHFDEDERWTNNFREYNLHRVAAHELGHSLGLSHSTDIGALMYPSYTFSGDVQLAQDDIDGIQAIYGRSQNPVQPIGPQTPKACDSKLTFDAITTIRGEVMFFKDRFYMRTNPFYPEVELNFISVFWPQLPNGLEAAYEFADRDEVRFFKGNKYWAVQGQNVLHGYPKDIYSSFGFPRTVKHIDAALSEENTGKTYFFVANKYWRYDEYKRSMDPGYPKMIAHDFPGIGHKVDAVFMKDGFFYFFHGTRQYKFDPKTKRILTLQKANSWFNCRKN
Procedure: (i) Collagenase Assay--Test Code 006
A collagenase assay was performed by a modification of the method of Harper, et al., Biochem., 10, 3035 (1971). In a typical assay (total volume of 0.45 ml), 100 μl of the activated enzyme was added to the ^14 C-labeled collagen fibrils (250 μl) followed by 100 μl of 50 mM cacodylate, pH 7.4, containing 5 mM calcium chloride. After incubation at 37° C. for 16 hours, the tubes were centrifuged in a Beckman microfuge for five minutes at full speed. An aliquot (200 μl) of the supernatant, representing collagenase digestion products of the fibril, was assayed for radioactivity. The effect of the test compound on collagen degradation by collagenase was examined as follows:
Varying concentrations of the test compound (in distilled water) were added to the assay tubes containing active collagenase (total volume 450 μl) and after 16 hours the amount of radioactivity in the supernatant was determined. Appropriate blanks and trypsin controls were run in parallel.
The result is expressed as an ID50 collagenase value which represents a ratio of the weight (μg) of the representative compound required for 50% inhibition of collagenase over the weight (μg) of 6,6'-[ureylenebis(m-phenylenecarbonylimino)]bis[4-hydroxy-2-naphthalenesulfonic acid]disodium salt required for 50% inhibition of collagenase.

[3] = In vitro binding (competition) assay with 14C reference compound on tooth powder; conditions: 1 mg tooth powder, PBS, 60 minutes at 37° C.; relative to reference 6,6'-[ureylenebis(m-phenylenecarbonylimino)] analog; >1 = less efficient
Source text: Using (radioactive) ^14 C-6,6'-[ureylenebis(m-phenylenecarbonylimino)]bis[4-hydroxy-2-naphthalenesulfonic acid]disodium salt, an in vitro binding (competition) assay procedure has been established which involves an insoluble substrate such as tooth powder which will bind the ^14 C-6,6'-[ureylenebis(m-phenylenecarbonylimino)]bis[4-hydroxy-2-naphthalenesulfonic acid]disodium salt. The amount of ^14 C-6,6'-[ureylenebis(m-phenylenecarbonylimino)]bis[4-hydroxy-2-naphthalenesulfonic acid]disodium salt bound is determined by washing away the unbound radioactive compound and counting CPM (counts per minute) of the insoluble tooth powder/^14 C-6,6'-[ureylenebis(m-phenylenecarbonylimino)]bis[4-hydroxy-2-naphthalenesulfonic acid]disodium salt complex. […] The inhibiting effect of the test compound on binding compared to non-radioactive 6,6'-[ureylenebis(m-phenylenecarbonylimino)]bis[4-hydroxy-2-naphthalenesulfonic acid]disodium salt was determined as follows: A one mg amount of tooth powder was incubated in one ml of phosphate buffered saline (PBS) with 10 μg of ^14 C-6,6'-[ureylenebis(m-phenylenecarbonylimino)]bis[4-hydroxy-2-naphthalenesulfonic acid]disodium salt and varying dose amounts (ranging from 0 to 2 mg) of the same cold (non-radioactive) compound. […]

[4] = test system: corneal ulcerations; conditions: directly applied; alkali burned rabbit; cited from earlier work
[5] = test system: corneal ulceration; conditions: human; cited from earlier work
[6] = compared with cysteine; cited from earlier work
[7] = Binding to insoluble collagenous structures; conditions: teeth, dentin, gingiva and the like

Molecule | collagenase inhibition / inhibition of collagen degradation [1] | also measured
Cc1cc(-c2ccc(/N=N/c3c(S(=O)(=O)O)cc4cc(S(=O)(=O)O)cc(N)c4c3O)c(C)c2)ccc1/N=N/c1c(S(=O)(=O)O)cc2cc(S(=O)(=O)O)cc(N)c2c1O [trypan blue] | inhibiting the activity of collagenase | 
sodium auriothiomalate | collagenase inhibitors | 
O=C(Nc1ccc(S(=O)(=O)Nc2ccc3cc(S(=O)(=O)O)cc(O)c3c2)cc1)Nc1ccc(S(=O)(=O)Nc2ccc3cc(S(=O)(=O)O)cc(O)c3c2)cc1 [6,6'-[Ureylenebis(p-phenylenesulfonylimino)]bis-[4-hydroxy-2-naphthalenesulfonic acid]disodium salt] |  | ID50 Collagenase Ratio [2]: 1.73; ID50 Binding Ratio [3]: 1.55
O[C@H](CS)[C@H](O)CS (racemic) [dithiothreitol] | collagenase inhibitors | 
Cc1ccc(C(=O)Nc2ccc(S(=O)(=O)O)c3cc(S(=O)(=O)O)cc(S(=O)(=O)O)c23)cc1NC(=O)c1cccc(NC(=O)Nc2cccc(C(=O)Nc3cc(C(=O)Nc4ccc(S(=O)(=O)O)c5cc(S(=O)(=O)O)cc(S(=O)(=O)O)c45)ccc3C)c2)c1 [Suramin] | not inhibiting the action of collagenase | 
O=C([O-])CN(CCN(CC(=O)[O-])CC(=O)[O-])CC(=O)[O-].[Ca+2].[Ca+2] [Calcium ethylenediaminetetraacetate] |  | frequency of corneal ulceration [4]: reduce the frequency of ulceration
c1cnc2c(c1)ccc1cccnc12 [1,10-phenanthroline] | collagenase inhibitors | 
α2 -macroglobulin: serum component; naturally occurring collagenase inhibitor | collagenase inhibitors | 
CC(=O)N[C@@H](CS)C(=O)O [acetylcysteine] |  | frequency of corneal ulceration [4]: reduce the frequency of ulceration; treatment of acute and chronic corneal ulceration [5]: effective in the treatment of acute and chronic corneal ulceration; stability [6]: greater stability
N[C@@H](CS)C(=O)O [cysteine] | collagenase inhibitors | treatment of acute and chronic corneal ulceration [5]: effective in the treatment of acute and chronic corneal ulceration
O=C(Nc1cccc(C(=O)Nc2ccc3cc(S(=O)(=O)O)cc(O)c3c2)c1)Nc1cccc(C(=O)Nc2ccc3cc(S(=O)(=O)O)cc(O)c3c2)c1 [6,6'-[ureylenebis(m-phenylenecarbonylimino)]bis[4-hydroxy-2-naphthalenesulfonic acid]disodium salt] | inhibitor of the degradation of collagen | reversibility and saturability of binding [7]: saturable and reversible

— patent publication USH83H, “Dental antiplaque agents and inhibitors of connective tissue destruction” (American Cyanamid Company, priority 1985, dated 1986)
